Laboratory results from patent publication US20250213705A1, “PSMA TARGETING LIGANDS AND METHODS OF USE” (Bright Peak Therapeutics AG, priority 2023, published 2025).
Numbered stars: 1 amine (or outer) side, 2 acyl side, 3 side chain; on linkers, the order of the positions; unused ones are H or OH. Square brackets hold non-standard residues; d marks the D form. Side chains are listed from the residue outwards. Peptide text beside a SMILES is read from it. 2Nal = N[C@@H](Cc1ccc2ccccc2c1)C(=O)O; Trx = NC[C@H]1CC[C@H](C(=O)O)CC1; PEG3 = NCCOCCOCCOCCC(=O)O; Dap = NC[C@H](N)C(=O)O; CO = O=C([*:1])[*:2]

Tests used:
[1] = target: Recombinant Human PSMA/FOLH1 Protein (Homo sapiens (Human), UniProt Q04609); test: Inhibition assay (Amplex Red glutamic acid/glutamate oxidase, NAAG substrate); format: biochemical; details: Target PSMA, average of N replicates; for IC50: PSMA 5 nM, NAAG 40 μM; for Ki: calculated based on Cheng-Prusoff equation
Recombinant Human PSMA/FOLH1 Protein, sequence (Q04609 whole entry): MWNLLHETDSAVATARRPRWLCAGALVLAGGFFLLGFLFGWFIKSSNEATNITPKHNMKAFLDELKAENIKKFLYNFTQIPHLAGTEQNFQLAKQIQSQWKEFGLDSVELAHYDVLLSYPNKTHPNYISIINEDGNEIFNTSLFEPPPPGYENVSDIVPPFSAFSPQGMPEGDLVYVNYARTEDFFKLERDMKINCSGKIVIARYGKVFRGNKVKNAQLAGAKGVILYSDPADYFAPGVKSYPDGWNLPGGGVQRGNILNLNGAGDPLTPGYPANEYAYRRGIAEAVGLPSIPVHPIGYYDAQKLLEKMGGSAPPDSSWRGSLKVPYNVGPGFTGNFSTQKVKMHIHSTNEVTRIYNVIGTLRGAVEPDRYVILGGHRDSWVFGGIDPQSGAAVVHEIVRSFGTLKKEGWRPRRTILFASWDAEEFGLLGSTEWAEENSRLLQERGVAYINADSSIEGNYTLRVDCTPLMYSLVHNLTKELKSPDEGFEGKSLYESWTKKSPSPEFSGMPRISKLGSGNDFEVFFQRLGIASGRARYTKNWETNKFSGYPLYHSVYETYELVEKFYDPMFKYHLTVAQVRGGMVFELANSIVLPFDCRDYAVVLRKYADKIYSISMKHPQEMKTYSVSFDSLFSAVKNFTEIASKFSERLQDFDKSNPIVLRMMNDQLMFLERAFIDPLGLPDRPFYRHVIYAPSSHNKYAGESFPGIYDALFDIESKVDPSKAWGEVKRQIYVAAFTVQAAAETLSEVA
Experimental: Amplex™ Red Glutamic Acid/Glutamate Oxidase Assay Kit Catalog number: A12221 (Thermofisher); Recombinant Human PSMA/FOLH1 Protein, CF (rnd systems); N-Acetyl-Asp-Glu (NAAG) (Sigma Aldrich; 96 well half area plate; Enspire plate reader.
Prepare a working solution of 100 μM Amplex® Red reagent containing 0.25 U/mL HRP, 0.08 U/mL L-glutamate oxidase, 0.5 U/mL 1-glutamate-pyruvate transaminase, 200 μM L-alanine and keep protected from light. […] Final concentration is 5 nM. Transfer 10 μl/well of the inhibitor solution previously prepared in a separate 96 wells/plate.
Pipette 20 μl/well of the working solution prepared above. Incubate the reactions for 30 min at 37° C., protected from light. Because the assay is continuous (not terminated), fluorescence may be measured at multiple time points to follow the kinetics of the reactions. Measure the fluorescence in a fluorescence microplate reader using excitation in the range of 530-560 nm and emission detection at ˜590 nm. Ec50s were determined with GraphPad Prism. Ki is calculated based on Cheng-Prusoff equation.

[2] = target: human FOLH1 (Homo sapiens (Human), UniProt Q04609); test: SPR analysis of binding kinetics to biotinylated FOLH1 (Biacore 8K); details: ligand PSMA; for Kon: association rate; for koff: dissociation rate
human FOLH1, sequence (Q04609 whole entry): as above
Experimental: The interaction of PSMA-binding variants with human FOLH1 was measured with Surface Plasmon Resonance (SPR) technology. Biotinylated FOLH1 was captured at a concentration of 30 μg/mL onto a Streptavidin chip.
Binding kinetics of the analytes were measured with a Biacore 8K instrument in two-fold serial dilutions starting at 500 nM down to 1.95 nM in single cycle kinetic measurements. After each cycle, needles were washed with 50% DMSO. To measure the association to the FOLH1 protein, the samples were injected with a flow rate of 30 μL/min for 90 s, followed by 1200 s buffer only to detect the dissociation. The used running buffer was 1×PBS with 0.05% Tween20 and 2% DMSO. The relative response units (RU, Y-axis) are plotted against time (s, X-axis) and analyzed in a kinetic 1:1 binding model.
In a different setup, biotinylated FOLH1 was captured at a concentration of 0.8 μg/mL and the running buffer was 1×PBS with 0.05% Tween20.

| Compound | IC50 [1] [µM] | Ki [1] [nM] | Kon [2] | koff [2] [s⁻¹] |
| --- | --- | --- | --- | --- |
| CC(=O)NCCOCCOCCOCCC(=O)NC[C@H]1CC[C@H](C(=O)N[C@@H](CC(C)C)C(=O)NCCCC[C@H](NC(=O)N[C@@H](CCC(=O)O)C(=O)O)C(=O)O)CC1 [Compound 1] | 2.39 | 17.1 | – | – |
| CC(=O)NCCOCCOCCOCCC(=O)N1C[C@H](NC(=O)CCCOc2cc(C#N)cc(C#N)c2)C[C@H]1C(=O)N[C@@H](Cc1ccc2ccccc2c1)C(=O)NCCCC[C@H](NC(=O)N[C@@H](CCC(=O)O)C(=O)O)C(=O)O [Compound 80] | – | – | 243000 1.ms | 0.000599 |
| CSCC[C@H](NC(=O)N[C@@H](CCCCNC(=O)[C@H](Cc1ccc2ccccc2c1)NC(=O)[C@H]1CC[C@H](CNC(=O)CCOCCOCCOCCNC(C)=O)CC1)C(=O)O)C(=O)O [Compound 27] | 191 | 1370 | – | – |
| CC(=O)NCCOCCOCCOCCC(=O)NC[C@H]1CC[C@H](C(=O)N[C@@H](Cc2ccc3ccccc3c2)C(=O)NCCCC[C@H](NC(=O)N[C@@H](Cc2cccc(C(=O)O)c2)C(=O)O)C(=O)O)CC1 [Compound 30] | 602 | 4300 | – | – |
| CC(=O)NCCOCCOCCOCCC(=O)N[C@@H](CCCOc1cc(C#N)cc(C#N)c1)C(=O)N[C@@H](Cc1ccc2ccccc2c1)C(=O)NCCCC[C@H](NC(=O)N[C@@H](CCC(=O)O)C(=O)O)C(=O)O [Compound 51] | 1.71 | 12.2 | – | – |
| C#CC[C@H](NC(=O)N[C@@H](CCCCNC(=O)[C@H](Cc1ccc2ccccc2c1)NC(=O)[C@H]1CC[C@H](CNC(=O)CCOCCOCCOCCNC(C)=O)CC1)C(=O)O)C(=O)O [Compound 50] | 17.6 | 126 | – | – |
| CC(=O)NCCOCCOCCOCCC(=O)NC[C@H]1CC[C@H](C(=O)N[C@@H](Cc2ccc(N=[N+]=[N-])cc2)C(=O)NCCCC[C@H](NC(=O)N[C@@H](CCC(=O)O)C(=O)O)C(=O)O)CC1 [Compound 15] | 0.935 | 6.68 | – | – |
| CC(=O)NCCOCCOCCOCCC(=O)N[C@@H](Cc1ccncc1)C(=O)NCC(=O)N[C@@H](Cc1ccc2ccccc2c1)C(=O)NCCCC[C@H](NC(=O)N[C@@H](CCC(=O)O)C(=O)O)C(=O)O [Compound 85] | 0.0106 | 0.0759 | – | – |
| CC(=O)NCCOCCOCCOCCC(=O)NC[C@H]1CC[C@H](C(=O)N[C@@H](Cc2ccc3ccccc3c2)C(=O)NCCCC[C@H](NC(=O)N[C@@H](CC(C)C)C(=O)O)C(=O)O)CC1 [Compound 26] | 1550 | 11000 | – | – |
| CC(=O)NCCOCCOCCOCCC(=O)NC[C@H]1CC[C@H](C(=O)N[C@@H](CCCC(=O)O)C(=O)NCCCC[C@H](NC(=O)N[C@@H](CCC(=O)O)C(=O)O)C(=O)O)CC1 [Compound 20] | 1.49 | 10.7 | – | – |
| CC(=O)NCCOCCOCCOCCC(=O)NC[C@H]1CC[C@H](C(=O)N[C@@H](CC2CCCCC2)C(=O)NCCCC[C@H](NC(=O)N[C@@H](CCC(=O)O)C(=O)O)C(=O)O)CC1 [Compound 19] | 2.16 | 15.4 | – | – |
| CC(=O)NCCOCCOCCOCCC(=O)NC[C@H]1CC[C@H](C(=O)N[C@@H](CCCCN)C(=O)NCCCC[C@H](NC(=O)N[C@@H](CCC(=O)O)C(=O)O)C(=O)O)CC1 [Compound 6] | 58.2 | 416 | – | – |
| CC(=O)NCCOCCOCCOCCC(=O)NC[C@H]1CC[C@H](C(=O)N[C@@H](Cc2ccc3ccccc3c2)C(=O)NCC(=O)N[C@@H](CNC(=O)N[C@@H](CCC(=O)O)C(=O)O)C(=O)O)CC1 [Compound 32] (Ac-[PEG3][Trx][2Nal]G[Dap]([CO-Glu])-OH) | 434 | 3100 | – | – |
| CC(=O)NCCOCCOCCOCCC(=O)NC[C@H]1CC[C@H](C(=O)N[C@H](Cc2ccc(O)cc2)C(=O)NCCCC[C@H](NC(=O)N[C@@H](CCC(=O)O)C(=O)O)C(=O)O)CC1 [Compound 43] | 0.679 | 4.86 | – | – |
| CC(=O)NCCOCCOCCOCCC(=O)NC[C@H]1CC[C@H](C(=O)N[C@@H](Cc2ccc3ccccc3c2)C(=O)NCCCC[C@H](NC(=O)N[C@@H](Cc2ccc(O)cc2)C(=O)O)C(=O)O)CC1 [Compound 25] | 44.6 | 319 | – | – |
| CC(=O)NCCOCCOCCOCCC(=O)NC[C@H]1CC[C@H](C(=O)N[C@@H](Cc2ccc3ccccc3c2)C(=O)NCCCC[C@H](NC(=O)N[C@@H](Cc2ccc(C(=O)O)cc2)C(=O)O)C(=O)O)CC1 [Compound 31] | 260 | 1860 | – | – |
| CC(=O)NCCOCCOCCOCCC(=O)N[C@@H](Cc1ccc(C(=O)O)cc1)C(=O)NCC(=O)N[C@@H](Cc1ccc2ccccc2c1)C(=O)NCCCC[C@H](NC(=O)N[C@@H](CCC(=O)O)C(=O)O)C(=O)O [Compound 94] | – | – | 112000 1.ms | 0.000261 |

| Compound | IC50 [1] [µM] | Ki [1] [nM] | Kon [2] | koff [2] [s⁻¹] |
| --- | --- | --- | --- | --- |
| CC(=O)NCCOCCOCCOCCC(=O)NC[C@H]1CC[C@H](C(=O)N[C@@H](Cc2ccncc2)C(=O)NCCCC[C@H](NC(=O)N[C@@H](CCC(=O)O)C(=O)O)C(=O)O)CC1 [Compound 44] | 0.177 | 1.27 | – | – |
| CC(=O)NCCOCCOCCOCCC(=O)N(CCCOc1cc(C#N)cc(C#N)c1)CC(=O)N[C@@H](Cc1ccc2ccccc2c1)C(=O)NCCCC[C@H](NC(=O)N[C@@H](CCC(=O)O)C(=O)O)C(=O)O [Compound 78] | – | – | 487000 1.ms | 0.000208 |
| CC(=O)NCCOCCOCCOCCC(=O)NC[C@H]1CC[C@H](C(=O)N[C@@H](C)C(=O)NCCCC[C@H](NC(=O)N[C@@H](CCC(=O)O)C(=O)O)C(=O)O)CC1 [Compound 4] | 0.537 | 3.84 | – | – |
| CC(=O)NCCOCCOCCOCCC(=O)NC[C@H]1CC[C@H](C(=O)N[C@@H](Cc2cscn2)C(=O)NCCCC[C@H](NC(=O)N[C@@H](CCC(=O)O)C(=O)O)C(=O)O)CC1 [Compound 45] | 0.554 | 3.96 | – | – |
| CC(=O)NCCOCCOCCOCCC(=O)NC[C@H]1CC[C@H](C(=O)N[C@H](CC(=O)NCCCC[C@H](NC(=O)N[C@@H](CCC(=O)O)C(=O)O)C(=O)O)Cc2ccccc2)CC1 [Compound 46] | 0.446 | 3.19 | – | – |
| CC(=O)NCCOCCOCCOCCC(=O)NC[C@H]1CC[C@H](C(=O)N[C@@H](Cc2ccc3ccccc3c2)C(=O)NCCCC(=O)N[C@@H](CNC(=O)N[C@@H](CCC(=O)O)C(=O)O)C(=O)O)CC1 [Compound 33] | 583 | 4170 | – | – |
| CC(=O)NCCOCCOCCOCCC(=O)NC[C@H]1CC[C@H](C(=O)N[C@@H](Cc2ccc(F)cc2)C(=O)NCCCC[C@H](NC(=O)N[C@@H](CCC(=O)O)C(=O)O)C(=O)O)CC1 [Compound 13] | 0.951 | 6.8 | – | – |
| CC(=O)NCCOCCOCCOCCC(=O)NC[C@H]1CC[C@H](C(=O)N[C@@H](Cc2c[nH]cn2)C(=O)NCCCC[C@H](NC(=O)N[C@@H](CCC(=O)O)C(=O)O)C(=O)O)CC1 [Compound 9] | 1.08 | 7.74 | – | – |
| CC(=O)NCCOCCOCCOCCC(=O)NC[C@H]1CC[C@H](C(=O)N[C@H](Cc2c[nH]cn2)C(=O)NCCCC[C@H](NC(=O)N[C@@H](CCC(=O)O)C(=O)O)C(=O)O)CC1 [Compound 42] | 2.24 | 16 | – | – |
| CC(=O)NCCOCCOCCOCCC(=O)NC[C@H]1CC[C@H](C(=O)N[C@@H](Cc2c[nH]c3ncccc23)C(=O)NCCCC[C@H](NC(=O)N[C@@H](CCC(=O)O)C(=O)O)C(=O)O)CC1 [Compound 22] | 0.488 | 3.49 | – | – |
| CC(=O)NCCOCCOCCOCCC(=O)N[C@@H](CCCOc1cc(C#N)cc(C#N)c1)C(=O)NCCC(=O)N[C@@H](Cc1ccc2ccccc2c1)C(=O)NCCCC[C@H](NC(=O)N[C@@H](CCC(=O)O)C(=O)O)C(=O)O [Compound 53] | 0.0112 | 0.0801 | – | – |
| CC(=O)NCCOCCOCCOCCC(=O)NC[C@H]1CC[C@H](C(=O)N[C@@H](Cc2ccc(O)cc2)C(=O)NCCCC[C@H](NC(=O)N[C@@H](CCC(=O)O)C(=O)O)C(=O)O)CC1 [Compound 3] | 0.421 | 3.01 | – | – |
| CC(=O)NCCOCCOCCOCCC(=O)NC[C@H]1CC[C@H](C(=O)N[C@@H](Cc2cn(C)cn2)C(=O)NCCCC[C@H](NC(=O)N[C@@H](CCC(=O)O)C(=O)O)C(=O)O)CC1 [Compound 11] | 3.24 | 23.2 | – | – |
| CC(=O)NCCOCCOCCOCCC(=O)NC[C@H]1CC[C@H](C(=O)N[C@@H](CCCOc2cc(C#N)cc(C#N)c2)C(=O)NCCCC[C@H](NC(=O)N[C@@H](CCC(=O)O)C(=O)O)C(=O)O)CC1 [Compound 47] | 2.06 | 14.7 | – | – |
| CC(=O)NCCOCCOCCOCCC(=O)NC[C@H]1CC[C@H](C(=O)N[C@@H](Cc2ccc3ccccc3c2)C(=O)NCCCC[C@H](NC(=O)N[C@@H](Cc2cnc[nH]2)C(=O)O)C(=O)O)CC1 (stereo in doubt) [Compound 29] | 576 | 4120 | – | – |
| CC(=O)NCCOCCOCCOCCC(=O)NC[C@H]1CC[C@H](C(=O)N[C@H](Cc2ccccc2)C(=O)NCCCC[C@H](NC(=O)N[C@@H](CCC(=O)O)C(=O)O)C(=O)O)CC1 [Compound 18] | 0.54 | 3.86 | – | – |
